Measurements reported in US20220184235A1, “NEAR-INFRARED FLUORESCENT PROBES FOR MOLECULAR IMAGING OF BONE REPAIR” (Taipeibio Co., Ltd., priority 2020, published 2022).
Bridges are numbered along the chain shown (N, C = ends). Where no end group is shown, it is not given here.

Experiments:
[1] = NIR fluorescence emission spectra of the probes; assay type: physicochemical; conditions: excitation of 777 nm
Method: Triethylamine (65.3 μL, 0.467 mmol) and 3-mercaptopropionic acid (40.7 μL, 0.467 mmol) were added to a solution of IR-783 (250 mg, 0.33 mmol) in 6 mL of anhydrous dimethylformamide (“DMF”). The resulting green solution was stirred in the dark at room temperature. The conversion reaction of IR783 to CyTE777 was complete after 21 h, as monitored by high-performance liquid chromatography (“HPLC”). A green solid was isolated through precipitation with ether at 4° C. and was washed with 3 mL cold ether. The precipitate was dissolved in water and dried under vacuum.
The augmented fluorescence intensity indicated completed conjugation.
Pamidronate (“PAM”) was attached to the carboxylate surface of nanoAu to form nanoAu-Pam directly or using a zero-length crosslinking agent, i.e., 1-ethyl-3-[3-dimethyl-aminopropyl] carbodiimide hydrochloride (“EDC”). Briefly, equal volumes of nanoAu (40 mM), pamidronate (3 mM), and EDC (80 mM) were mixed at room temperature for 2 h. To concentrate the nanoAu-Pam, the reaction was loaded on a 30 kDa molecular sieve (Amicon) and centrifuged at 3000 rpm for 10 min. The solution was centrifuged twice and washed with phosphate-buffered saline (“PBS”) to remove any unbound reactants. […] The fluorescence intensity of excitation spectra was recorded using an Edinburgh FL 900 CDT Time-Resolved Fluorometer (Edinburgh Analytical Instruments, Livingston, UK).

[2] = statement on the purchased dye; cited from earlier work
[3] = test system: undifferentiated MSCs; assay: Calcein staining of undifferentiated MSCs; assay type: cell-based
Method: (§1) Cells were also stained with calcein using a standard protocol to confirm calcium deposition in the culture. A 10x calcein/PBS staining solution was added to each well without medium change. The cells were incubated at 37° C., 5% CO2 overnight, washed twice with PBS, fixed with formaldehyde, and observed by fluorescence microscopy.

[4] = test system: osteoblastic-differentiated MSC culture; assay: Calcein staining for calcium deposition in osteogenically induced MSC culture; assay type: cell-based; conditions: MSC culture after 21 days of osteogenic induction
Method: as §1, with “For osteogenic induction, MSCs were cultured in 24-well plates in DMEM/LG medium supplemented with 10% FBS, 100 units/mL penicillin, 100 μg/mL streptomycin, 50 μg/ml L-ascorbate-2-phosphate, 10^−7 M dexamethasone and 10 mM β-glycero-phosphate at 37° C., 5% CO2. Cells” for “Cells”

[5] = test system: undifferentiated MSCs; assay: Binding specificity of α5β1L-CyTE777 in undifferentiated MSCs, confocal microscopy; assay type: cell-based; conditions: undifferentiated MSC
Method: (§2) To determine the binding specificity of α5β1L-CyTE777, undifferentiated MSCs or osteoblastic-induced MSCs were cultured in 24-well plates in DMEM/LG supplemented with 10% FBS. α5β1L-CyTE777 was applied to the cultures to detect binding to α5β1 . Cultures incubated with α5β1L-CyTE777 were washed with PBS twice and analyzed by confocal microscopy after staining nuclei with diamidinophenylindole (“DAPI”).

[6] = test system: osteoblastic-induced MSCs (α5β1); assay: Binding specificity of α5β1L-CyTE777 in osteoblastic-induced MSCs, confocal microscopy; assay type: cell-based; conditions: osteoblastic-induced MSC
Method: as §2

## CC1(C)C(=CC=C2CCCC(C=CC3=[N+](CCCCS(=O)(=O)[O-])c4ccccc4C3(C)C)=C2SCCC(=O)O)N(CCCCS(=O)(=O)[O-])c2ccccc21.[Na+] [CyTE777]
[1]
  NIR emission peak: 820 nm

## CC1(C)C(=CC=C2CCCC(C=CC3=[N+](CCCCS(=O)(=O)[O-])c4ccccc4C3(C)C)=C2Cl)N(CCCCS(=O)(=O)[O-])c2ccccc21.[Na+] [IR783]
[2]
  cell toxicity: minimal cell toxicity

## O=C(O)CN(CC(=O)O)Cc1cc2c(cc1O)Oc1cc(O)c(CN(CC(=O)O)CC(=O)O)cc1C21OC(=O)c2ccccc21 [calcein]
[3]
  calcein staining (calcium deposition): No calcein staining
[4]
  calcein staining (calcium deposition): positive staining

## α5β1L-CyTE777: CyTE777 conjugated to the N-terminal glycine NH2 of disulfide-cyclised peptide GGCRRETAWAC (SEQ ID NO: 1) (CyTE777-GGCRRETAWAC; disulfide 3-11 (inferred))
[1]
  NIR emission peak: 820 nm
[5]
  fluorescent signal of cells incubated with probe: did not show any fluorescent signal
[6]
  fluorescent signal of cells incubated with probe: strong NIR fluorescence at 820 nm
